The values below come from ChEMBL document CHEMBL5244207, “Phenanthrenes: A Promising Group of Plant Secondary Metabolites” (J Nat Prod, 2018).

A word on the IC50: it is the concentration that gives 50% inhibition. A word on the EC50: it is the concentration that produces a half-maximal response.

SMILES strings stand for the structures. Converted amounts (≈) assume the structure as drawn. “And” between values parts separate entries of the source, which are not always exact repeats. Equal entries are not always repeated.

Assay [1] deals with BV-2. The assay can be described thus: Antiinflammatory activity in mouse BV2 cells assessed as reduction in LPS-induced nitric oxide production. Format: functional, cell-based.
A short description of assay [2]: Antioxidant activity assessed as DPPH radical scavenging activity. It counts as functional. (In general: The DPPH test is a chemical assay of radical scavenging.)
Assay [3] concerns RAW264.7. Description: Antiinflammatory activity against mouse RAW264.7 cells assessed as inhibition of LPS-induced COX2 expression. It counts as functional, cell-based.
The test system of assay [4] is RAW264.7. The assay can be described thus: Antiinflammatory activity in mouse RAW264.7 cells assessed as reduction in LPS-induced nitric oxide production. It counts as functional, cell-based. Conditions: Mus musculus, RAW264.7.
Assay [5] deals with Staphylococcus aureus. Description: Antibacterial activity against Staphylococcus aureus ATCC 43300 assessed as inhibition of bacterial growth. It counts as functional, organism-based.
The subject of assay [6] is Staphylococcus aureus. The assay can be described thus: Antibacterial activity against Staphylococcus aureus ATCC 29213 assessed as inhibition of bacterial growth. Format: functional, organism-based.
Assay [7] deals with Staphylococcus aureus. The assay can be described thus: Antibacterial activity against Staphylococcus aureus ATCC 25923 assessed as inhibition of bacterial growth. Format: functional, organism-based.
For assay [8], the system named is RAW264.7. Description: Antiinflammatory activity in mouse RAW 264.7 cells assessed as inhibition of LPS-induced nitric oxide production measured after 48 hrs by Griess reagent assay. Format: functional, cell-based. Conditions: RAW264.7, 48 h. Background: The Griess reaction detects nitrite, a stable product of nitric oxide.
For assay [9], the system named is Pichia kudriavzevii. Description: Antifungal activity against Candida krusei assessed as inhibition of fungal growth measured after 48 hrs by CLSI based agar dilution method. It counts as functional, organism-based. A general note: Agar dilution tests growth on a series of plates holding different concentrations.
For assay [10], the system named is MeWo. The assay can be described thus: Cytotoxicity against human MeWo cells by MTT assay. Format: functional, cell-based.
For assay [11], the system named is CT26.WT. The assay can be described thus: Cytotoxicity against mouse CT26.WT cells by MTT assay. It counts as functional, cell-based.
Assay [12] concerns CHO. The assay can be described thus: Cytotoxicity against CHO cells by MTT assay. Format: functional, cell-based. Conditions: Cricetulus griseus.
Assay [13] relates to B16-F10. Description: Cytotoxicity against mouse B16-F10 cells by MTT assay. It counts as functional, cell-based.
In assay [14] the test system is Mus musculus. Description: Anxiolytic activity in mouse assessed as increase in time spent in open arm at 5 mg/kg, po measured after 60 mins by elevated plus maze test. It counts as functional. Conditions: 1 h.
Assay [15] deals with Mus musculus. Description: Anxiolytic activity in mouse assessed as number of entries in open arm at 5 mg/kg, po measured after 60 mins by elevated plus maze test. It counts as functional. The note with it: 1 h.
Assay [16] concerns K562. The assay can be described thus: Cytotoxicity against human K562 cells assessed as reduction in cell viability. It counts as functional, cell-based.
The subject of assay [17] is SGC-7901. The assay can be described thus: Cytotoxicity against human SGC-7901 cells assessed as reduction in cell viability. Format: functional, cell-based. Conditions: sgc-7901.
Assay [18] relates to A549. Description: Cytotoxicity against human A549 cells assessed as reduction in cell viability. It counts as functional, cell-based.
In assay [19] the test system is HL-60. The assay can be described thus: Cytotoxicity against human HL-60 cells assessed as reduction in cell viability. It counts as functional, cell-based. The note with it: hl-60.
The subject of assay [20] is K562. Description: Induction of cell cycle arrest in human K562 cells measured for 24 hrs. It counts as functional, cell-based. The note with it: K562, 24 h.
Assay [21] relates to PC-3. Description: Induction of cell cycle arrest in human PC-3 cells measured for 24 hrs. Format: functional, cell-based. The note with it: PC-3, 24 h.
Assay [22] relates to HaCaT. Description: Antiinflammatory activity against human HaCaT cells assessed as inhibition of PGE2 production. Format: functional, cell-based.
The nature of assay [23]: Inhibition of H2O2-induced ROS production in human HaCaT cells. Format: functional, cell-based.
Assay [24] is described as follows: Antioxidant activity assessed as hydrogen peroxide scavenging activity. It counts as functional.
Assay [25] deals with HL-60. Description: Cytotoxicity against human HL-60 cells assessed as reduction in cell viability by MTT assay. Format: functional, cell-based.
Assay [26] can be described thus: Antioxidant activity assessed as ABTS radical scavenging activity. Format: functional.
Assay [27] in a line: Antioxidant activity assessed as DPPH radical scavenging activity incubated for 30 mins by spectrophotometric analysis. Format: functional.
Assay [28] can be described thus: Antioxidant activity assessed as DPPH radical scavenging activity at 20 uM relative to control. Format: functional.

Turning to `COc1ccc2ccc3ccc(O[C@@H]4O[C@H](CO)[C@@H](O)[C@H](O)[C@H]4O)c(O)c3c2c1`, the 50% inhibitory concentration (IC50) was determined as 10.6 mg/L in assay [1] and 0.2 µM in assay [2] (read-out: IC50).

For the compound `COc1cc(OC)c2c(ccc3cc(OC)c(O)cc32)c1`, the IC50 in assay [3] is 1.8 µM.

Regarding `COc1cc(O)c2c(c1)CCc1cc(O)c(-c3c(/C=C/c4cccc(O)c4)cc(O)cc3OC)cc1-2`, the EC50 in [2] was 47.3 µM.

Regarding `COc1cc(O)cc2ccc3cccc(O)c3c12` [MOSCATIN], in assay [2] (read-out: IC50), the IC50 was 9.2 µM.

Consider `C=Cc1ccc(CO)c2c1-c1ccc(O)c(C)c1CC2`, for which, in assay [4], the 50% inhibitory concentration (IC50) amounted to 14.4 µM.

Consider `COc1cc(O)c(-c2c(O)cc(OC)c3c2ccc2cc(O)ccc23)c2ccc3cc(O)ccc3c12` [CIRRHOPETALANTHIN], for which the 50% inhibitory concentration (IC50) in assay [5], in [6] and in [7] was 6.25 mg/L (≈ 13.1 µM) each time.

For the compound `COc1cc(O)c2c(c1)CCc1cc(O)ccc1-2` [LUSIANTHRIDIN], in [2], the EC50 came out at 22.3 µM. Further, the half-inhibitory concentration (IC50) in [2] (read-out: IC50) was 62.2 µM and 22.3 µM; in assay [8], 4.6 µM.

As for `COc1cc2c(c(O)c1C)CCc1c-2ccc(O)c1C=O`, the half-inhibitory concentration (IC50) in assay [9] came to 31.3 mg/L (≈ 110 µM); in assay [10], 5 mg/L (≈ 17.6 µM); in assay [11], 4 mg/L (≈ 14.1 µM); in [12] it was 6 mg/L (≈ 21.1 µM); in assay [13], 8 mg/L (≈ 28.1 µM).

On to `C[C@@H]1O[C@@H](OC[C@H]2O[C@@H](Oc3c(-c4ccc(O)c(O)c4)oc4cc(O)cc(O)c4c3=O)[C@H](O)[C@@H](O)[C@@H]2O)[C@H](O)[C@H](O)[C@H]1O` [RUTIN], for which the IC50 in [2] amounted to 2.5 mg/L.

For `COc1c(O)cc2ccc3c(OC)c(O)ccc3c2c1OC`, in assay [2] (read-out: IC50), the IC50 was determined as 12.9 µM.

For the compound `CN1C(=O)CN=C(c2ccccc2)c2cc(Cl)ccc21` [DIAZEPAM], the Time in assay [14] stood at 111.9 s. Further, the Activity in assay [15] is recorded as 13.6.

Regarding `COc1cc(O)c2c(c1)CCc1cc(O)cc(O)c1-2`, the half-inhibitory concentration (IC50) in [2] (read-out: IC50) stood at 10.2 µM.

Regarding `Cc1c(C)c2c(c(C)c1O)CCC(C)(C(=O)O)O2` (configuration not stated) [TROLOX], in [2] (read-out: IC50), the IC50 came to 11.7 µM.

Regarding `COc1cc(O)c2c(c1)CCc1cc(-c3c(OC)cc(O)c4c3CCc3cc(O)ccc3-4)c(O)cc1-2`, the IC50 turned out to be 2.8 µM in assay [16], 6.1 µM in assay [17], 1.2 µM in assay [18] and 4 µM in assay [19].

`COc1cc(O)c2c(c1)CCc1c-2ccc(OC)c1O`: the half-maximal effective concentration (EC50) in [2] was determined as 27.7 µM. In assay [2] (read-out: IC50), the IC50 came to 27.7 µM.

Take `COC1=CC(=O)c2ccc3cc(OC)cc(O)c3c2C1=O` [DENBINOBIN]: the values for the half-maximal inhibitory concentration (IC50) in [20] and in assay [21] were 1.8 µM and 7.5 µM, respectively.

For `C=Cc1cc(O)cc2c1-c1ccc(O)c(C)c1CC2` [EFFUSOL], in [4], the half-inhibitory concentration (IC50) stood at 15.1 µM. For the same compound, the Time in assay [14] was determined as 75.5 s. Also, the Activity in assay [15] is listed as 7.8.

In the case of `COc1cc(O)c2c(c1Cc1ccc(O)cc1)CCc1cc(O)ccc1-2`, the IC50 in assay [2] is 12.2 mg/L.

As for `COc1cc2c(cc1O)CCc1cc(O)cc(OC)c1-2`, the half-maximal inhibitory concentration (IC50) in [22] was 19.3 µM; in assay [1], 19.4 µM; in [23], 9.4 µM; in assay [24], 0.04 µM; in [2] (read-out: IC50) it was 9 µM.

Consider `C=Cc1c(C)c(O)cc2c1-c1ccc(O)c(C)c1CC2`, for which the Time in [14] is given as 58.8 s. For the same compound, the concentration for half-maximal inhibition (IC50) in assay [8] was determined as 3.1 µM. Moreover, the Activity in assay [15] is 6.6.

`COc1cc(O)c2c(c1)CCc1cc(O)c(-c3c(OC)cc(O)c4c3ccc3cc(O)ccc34)cc1-2`: the 50% inhibitory concentration (IC50) in [2] is 12.9 mg/L.

As for `COc1c(O)cc2c(c1OC)-c1ccc(O)cc1CC2` [ERIANTHRIDIN], in assay [2] (read-out: IC50), the half-maximal inhibitory concentration (IC50) is 14.9 µM.

For `COc1cc(O)cc2cc(O)c3cccc(OC)c3c12`, the half-maximal inhibitory concentration (IC50) in assay [2] (read-out: IC50) came to 59.8 µM.

As to `COC1=C(OC)C(=O)c2c(ccc3cccc(O)c23)C1=O`, the IC50 in assay [25] turned out to be 4.7 µM.

As for `COc1cc2cc(O)cc(OC)c2c2c(O)cccc12`, the values for the IC50 in assay [24], in [2] (read-out: IC50) and in assay [4] were 19 µM, 6.8 µM and 24.1 µM, respectively.

For `O=C1O[C@H]([C@@H](O)CO)C(O)=C1O` [ASCORBIC ACID], the Activity turned out to be 88.7% in assay [26] and 2.9% in assay [28]. For the same compound, the concentration for half-maximal inhibition (IC50) in assay [27] was found to be 0.41 µM; in [2] (read-out: IC50), 18 µM.

Take `Oc1cc2c3c(c1)COc1cc(O)cc(c1-3)CC2`: the IC50 is 0.08 µM in assay [24] and 6.6 µM in assay [2] (read-out: IC50).

In the case of `COc1cc(O)c(-c2cc3c(cc2O)CCc2cc(OC)cc(O)c2-3)c(CCc2cccc(O)c2)c1`, the EC50 in assay [2] is 55.9 µM.
